Measured values reported in ChEMBL document CHEMBL1143441, “New classes of Gram-positive selective antibacterials: inhibitors of MRSA and surrogates of the causative agents of anthrax and tuberculosis” (2008).
In brackets after ≈: the same amount, converted by molar mass.

System: Mycobacterium tuberculosis
Test: Antimicrobial activity against Mycobacterium bovis BCG by NCCLS M7-A6 method
Assay type: functional
Details: variant bovis BCG

COc1cc(O)cc(/C=C/c2ccccc2)c1 [PINOSYLVIN METHYL ETHER]
MIC: 26 µg/mL (≈ 115 µM)
